Experimental data: patent US9687522B2, “Methods of treating a subject afflicted with an autoimmune disease using predictive biomarkers of clinical response to glatiramer acetate therapy in multiple sclerosis” (TEVA PHARMACEUTICAL INDUSTRIES, LTD., priority 2010, dated 2017)

Legend:
IL-4 [1] = assay: Serum IL-4 by ELISA in GA-treated MS patients; assay type: in vivo, human
Source text: (§1) Approximately 60 cc of blood was obtained by venipuncture from each MS patient pre-treatment and at successive time points during treatment (3 months, 6 months, 9-12 months and 24 months). PBMC were purified using Ficoll-Hypaque gradients as described in the supplier's protocol (ICN Biomedicals Inc. Ohio, USA). Samples from collaborating centers were sent via overnight FedEx™ delivery at room temperature and processed immediately upon arrival.
(§2) Interleukin-18 and caspase-1 levels were detected by human ELISA kits (Sandwich ELISA, Bender Nedaystems, USA). The sensitivity of the ELISA was 9.2 and 3.3 pg/ml for IL-18 and caspase-1 respectively. TGF-β, TNF-α, IL-4, IFN-γ, IL-17 and IL-10 levels were detected by human ELISA kits from ebioscience (San Diego Calif., 92121 USA). The sensitivity of the ebioscience kits were 60 pg/ml, 4 pg/ml, 2 pg/ml, 4 pg/ml, 4 pg/ml and 2 pg/ml respectively. BDNF was detected by the Human BDNF ELISA kit from Chemicon International (catalog #CYT306). The sensitivity of the BDNF ELISA was 7.8 pg/ml. […] Duplicates should be within 20% of the mean.

caspase-1 = assay: Serum caspase-1 by ELISA in GA-treated MS patients; assay type: in vivo, human
Source text: as §1, §2

IL-4 [2] = assay: IL-4 ELISPOT in ex-vivo PBMC of GA-treated MS patients; assay type: cell-based, human; parameters: unit not given here; details: CD3/CD28 stimulated PBMC
Source text: as §1
Human IFN-γ (Th1 indicator) and IL-4 (Th2 indicator) were measured by the ELISPOT assay according to the manufacturer's protocol (BD Biosciences, San Diego, Calif., USA). Briefly, ELISPOT plates (PVDF plate, Millipore Corporation, MA, USA) were coated with 100 μl/well of 5 μg/ml capture antibody at 4° C. over night. The plates were then washed with PBS, and incubated with 200 μl/well of blocking solution (culture medium) for 2 hours. PBMC (2×10^5 cells/well for IFN-γ and 4×10^5 cells/well for IL-4 detection) and antigen (GA 40 and 100 μg/ml, TT 5 μg/ml, CD3Ab (2.5 μg/ml)/CD28 Ab (1 μg/ml)) was added and cultured overnight at 37° C. in a 5% CO2 incubator. Samples were tested in triplicate wells in response to each antigen. After overnight culture, the plates were washed twice with deionized water and three times with PBS, then incubated with 100 μl of 2.0 μg/ml biotinylated antibody for 2 hours at room temperature. The plates were then washed three times with wash buffer (0.05% Tween-20 PBS), and incubated with 100 μl of 1:100 dilution of Avidin-HRP for 1 hour at room temperature and washed three times with wash buffer. Finally 100 μl of AEC (3-amino-9-ethyl-carbazole) substrate was added and the reaction was stopped by washing plates with distilled water. Spots were counted and analyzed by CTL Analyzers LLC ELISPOT Plate Reader (Cleveland, Ohio, USA).

IL-18 = assay: Serum IL-18 by ELISA in GA-treated MS patients; assay type: in vivo, human
Source text: as §1, §2

Serum caspase-1 level (caspase-1; HR/NR, 3 mo): 284 ± 35 pg/mL
Serum caspase-1 level (caspase-1; HR/NR, 6 mo): 302 ± 42 pg/mL
Serum caspase-1 level (caspase-1; HR/NR, 9-12 mo): 255 ± 21 pg/mL
Serum caspase-1 level (caspase-1; HR/NR, 24 mo): 276 ± 7 pg/mL
Serum caspase-1 level (caspase-1; HR/NR, Pre-Rx): 300 ± 29 pg/mL
Serum caspase-1 level (caspase-1; R, 3 mo): 279 ± 23 pg/mL
Serum caspase-1 level (caspase-1; R, 6 mo): 187 ± 21 pg/mL
Serum caspase-1 level (caspase-1; R, 9-12 mo): 288 ± 12 pg/mL
Serum caspase-1 level (caspase-1; R, 24 mo): 282 ± 11 pg/mL
Serum caspase-1 level (caspase-1; R, Pre-Rx): 325 ± 26 pg/mL
Δ Caspace 6 months, Median (Non-Responders) (caspase-1; serum, change from baseline): −19
Δ Caspace 6 months, Median (Responders) (caspase-1; serum, change from baseline): −142.5
Substance: Glatiramer acetate [GA]
Serum IL-4 level (IL-4 [1]; HR/NR, 3 mo): 13 ± 0.92 pg/mL
Serum IL-4 level (IL-4 [1]; HR/NR, 6 mo): 13 ± 1.4 pg/mL
Serum IL-4 level (IL-4 [1]; HR/NR, 9-12 mo): 18 ± 1.4 pg/mL
Serum IL-4 level (IL-4 [1]; HR/NR, 24 mo): 16 ± 1 pg/mL
Serum IL-4 level (IL-4 [1]; HR/NR, Pre-Rx): 14 ± 0.70 pg/mL
Serum IL-4 level (IL-4 [1]; R, 3 mo): 16 ± 0.70 pg/mL
Serum IL-4 level (IL-4 [1]; R, 6 mo): 17 ± 0.81 pg/mL
Serum IL-4 level (IL-4 [1]; R, 9-12 mo): 17 ± 1.8 pg/mL
Serum IL-4 level (IL-4 [1]; R, 24 mo): 16 ± 1.0 pg/mL
Serum IL-4 level (IL-4 [1]; R, Pre-Rx): 16 ± 0.60 pg/mL
Δ IL-4 6 months, Median (Non-Responders) (IL-4 [1]; serum, change from baseline): −1.5
Δ IL-4 6 months, Median (Responders) (IL-4 [1]; serum, change from baseline): 1
IL-4 expression (ELISPOT) (IL-4 [2]; HR/NR, 3 mo): 14 ± 4
IL-4 expression (ELISPOT) (IL-4 [2]; HR/NR, 6 mo): 20 ± 6
IL-4 expression (ELISPOT) (IL-4 [2]; HR/NR, 9-12 mo): 23 ± 5
IL-4 expression (ELISPOT) (IL-4 [2]; HR/NR, 24 mo): 21 ± 3.5
IL-4 expression (ELISPOT) (IL-4 [2]; HR/NR, Baseline): 39 ± 9
IL-4 expression (ELISPOT) (IL-4 [2]; R, 3 mo): 44 ± 7.4
IL-4 expression (ELISPOT) (IL-4 [2]; R, 6 mo): 45 ± 7.3
IL-4 expression (ELISPOT) (IL-4 [2]; R, 9-12 mo): 39 ± 5.8
IL-4 expression (ELISPOT) (IL-4 [2]; R, 24 mo): 36 ± 7.2
IL-4 expression (ELISPOT) (IL-4 [2]; R, Baseline): 35 ± 5.9
Serum IL-18 level (IL-18; HR/NR, 3 mo): 284 ± 35 pg/mL
Serum IL-18 level (IL-18; HR/NR, 6 mo): 310 ± 39 pg/mL
Serum IL-18 level (IL-18; HR/NR, 9-12 mo): 283 ± 22 pg/mL
Serum IL-18 level (IL-18; HR/NR, 24 mo): 265 ± 15 pg/mL
Serum IL-18 level (IL-18; HR/NR, Pre-Rx): 300 ± 29 pg/mL
Serum IL-18 level (IL-18; R, 3 mo): 279 ± 23 pg/mL
Serum IL-18 level (IL-18; R, 6 mo): 189 ± 26 pg/mL
Serum IL-18 level (IL-18; R, 9-12 mo): 262 ± 15 pg/mL
Serum IL-18 level (IL-18; R, 24 mo): 260 ± 12 pg/mL
Serum IL-18 level (IL-18; R, Pre-Rx): 304 ± 26 pg/mL
Δ IL-18 6 months, Median (Non-Responders) (IL-18; serum, change from baseline): 2
Δ IL-18 6 months, Median (Responders) (IL-18; serum, change from baseline): −102
